Assays:
[1] = Liver microsome (LM) intrinsic clearance, human; type: in vitro ADME
CYP3A4 = CYP3A4 (Homo sapiens (Human), UniProt P08684); assay: CYP450 inhibition at 10 μM, CYP3A4; type: in vitro ADME; conditions: human, 10 μM, read-out: CYP 450 % INH @ 10 μM
adenosine A1 receptor [2] = target: T1, adenosine A1 receptor (Homo sapiens (Human), UniProt P30542); assay: A1 cAMP IC50 assay (Table 1); type: biochemical
adenosine A2A receptor = adenosine A2A receptor (Homo sapiens (Human), UniProt P29274); assay: Adenosine receptor activity assay (Table 1), A2A activity; type: biochemical; conditions: read-out: Ave A2A cAMP IC50
[3] = Liver microsome (LM) intrinsic clearance, rat; type: in vitro ADME
adenosine A2B receptor = adenosine A2B receptor (Homo sapiens (Human), UniProt P29275); assay: Adenosine receptor activity assay (Table 1), A2B activity; type: biochemical; conditions: for IC50: read-out: Ave A2B cAMP IC50
[4] = Hepatocyte (Hep) intrinsic clearance, dog; type: in vitro ADME; conditions: hepatocytes
CYP2D6 = CYP2D6 (Homo sapiens (Human), UniProt P10635); assay: CYP450 inhibition at 10 μM, CYP2D6; type: in vitro ADME; conditions: read-out: CYP 450 % INH @ 10 μM
adenosine A3 receptor [5] = target: T2, adenosine A3 receptor (Homo sapiens (Human), UniProt P0DMS8); assay: A3 cAMP IC50 assay (Table 1); type: biochemical
[6] = Hepatocyte (Hep) intrinsic clearance, rat; type: in vitro ADME; conditions: hepatocytes
[7] = Hepatocyte (Hep) intrinsic clearance, human; type: in vitro ADME; conditions: hepatocytes
[8] = Hepatocyte intrinsic clearance, human; type: in vitro ADME; conditions: hepatocytes
adenosine A3 receptor [9] = target: T2, adenosine A3 receptor; assay: Adenosine receptor activity assay (Table 1), A3 cAMP; type: cell-based
[10] = Hepatocyte intrinsic clearance, rat; type: in vitro ADME; conditions: hepatocytes
adenosine A1 receptor [11] = target: T1, adenosine A1 receptor; assay: Adenosine receptor activity assay (Table 1), A1 cAMP; type: cell-based
[12] = system: CYP 450 (isoform not given); assay: CYP450 inhibition at 10 μM; type: in vitro ADME; conditions: read-out: CYP 450 % INH @ 10 μM
[13] = Liver microsome intrinsic clearance (LM CLint), rat; type: in vitro ADME
[14] = Liver microsome intrinsic clearance (LM CLint), human; type: in vitro ADME
adenosine A3 receptor [15] = target: T2, adenosine A3 receptor; assay: Adenosine receptor activity assay (Table 1), A3 cAMP; type: biochemical
Method: (§1) Table 1. Compounds (e.g., Adenosine Receptor modulators) and activity assay results. The legend is as follows: A=<10 nM; B=10-50 nM; C=50-100 nM; D=100-500; and E=>500 nM. The ratio corresponds to the A2A activity to the A2B activity; or A2A/A2B.

adenosine A1 receptor [16] = target: T1, adenosine A1 receptor; assay: Adenosine receptor activity assay (Table 1), A1 cAMP; type: biochemical
Method: as §1

[17] = A2A activity to A2B activity (A2A/A2B)
[18] = A2A activity to the A2B activity, A2A/A2B

T1 sequence (P30542 whole entry): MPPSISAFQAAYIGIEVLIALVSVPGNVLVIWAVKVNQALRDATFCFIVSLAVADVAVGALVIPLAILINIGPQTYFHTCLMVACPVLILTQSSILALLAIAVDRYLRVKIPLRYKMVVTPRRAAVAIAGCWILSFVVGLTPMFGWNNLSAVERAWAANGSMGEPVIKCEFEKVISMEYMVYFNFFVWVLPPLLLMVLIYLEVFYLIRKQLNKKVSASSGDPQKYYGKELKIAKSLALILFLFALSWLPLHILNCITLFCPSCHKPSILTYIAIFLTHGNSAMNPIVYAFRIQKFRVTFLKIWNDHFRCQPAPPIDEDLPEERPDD
Sequence of adenosine A2A receptor (P29274 whole entry): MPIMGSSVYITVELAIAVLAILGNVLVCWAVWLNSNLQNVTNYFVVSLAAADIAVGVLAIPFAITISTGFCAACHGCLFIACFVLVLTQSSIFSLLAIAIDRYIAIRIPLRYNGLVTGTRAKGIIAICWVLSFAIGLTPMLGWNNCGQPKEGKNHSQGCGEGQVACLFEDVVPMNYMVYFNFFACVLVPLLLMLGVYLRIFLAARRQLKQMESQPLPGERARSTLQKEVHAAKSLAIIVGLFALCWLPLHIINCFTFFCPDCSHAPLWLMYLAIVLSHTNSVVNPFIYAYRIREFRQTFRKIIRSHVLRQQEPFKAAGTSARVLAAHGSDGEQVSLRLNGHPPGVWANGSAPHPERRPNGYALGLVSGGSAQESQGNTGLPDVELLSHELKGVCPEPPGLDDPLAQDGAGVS
Sequence of adenosine A2B receptor (P29275 whole entry): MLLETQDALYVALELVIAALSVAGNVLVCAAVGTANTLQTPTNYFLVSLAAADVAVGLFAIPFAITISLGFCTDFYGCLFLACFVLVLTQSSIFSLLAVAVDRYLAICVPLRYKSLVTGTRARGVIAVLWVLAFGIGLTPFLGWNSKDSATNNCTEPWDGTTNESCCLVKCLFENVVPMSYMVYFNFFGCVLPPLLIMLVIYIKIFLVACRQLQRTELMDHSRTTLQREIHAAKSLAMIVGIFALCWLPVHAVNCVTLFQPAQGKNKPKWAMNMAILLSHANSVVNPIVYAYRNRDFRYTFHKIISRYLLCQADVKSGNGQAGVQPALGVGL
T2 sequence (P0DMS8 whole entry): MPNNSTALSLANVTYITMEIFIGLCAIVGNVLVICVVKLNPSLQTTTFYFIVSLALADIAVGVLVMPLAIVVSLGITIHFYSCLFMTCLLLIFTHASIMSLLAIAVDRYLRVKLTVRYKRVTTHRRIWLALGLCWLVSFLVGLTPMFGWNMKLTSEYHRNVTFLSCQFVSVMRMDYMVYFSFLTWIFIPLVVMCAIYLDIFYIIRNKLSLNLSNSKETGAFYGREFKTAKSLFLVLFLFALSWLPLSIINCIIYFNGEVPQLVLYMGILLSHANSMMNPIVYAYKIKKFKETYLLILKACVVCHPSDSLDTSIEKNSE
Sequence of CYP2D6 (P10635 whole entry): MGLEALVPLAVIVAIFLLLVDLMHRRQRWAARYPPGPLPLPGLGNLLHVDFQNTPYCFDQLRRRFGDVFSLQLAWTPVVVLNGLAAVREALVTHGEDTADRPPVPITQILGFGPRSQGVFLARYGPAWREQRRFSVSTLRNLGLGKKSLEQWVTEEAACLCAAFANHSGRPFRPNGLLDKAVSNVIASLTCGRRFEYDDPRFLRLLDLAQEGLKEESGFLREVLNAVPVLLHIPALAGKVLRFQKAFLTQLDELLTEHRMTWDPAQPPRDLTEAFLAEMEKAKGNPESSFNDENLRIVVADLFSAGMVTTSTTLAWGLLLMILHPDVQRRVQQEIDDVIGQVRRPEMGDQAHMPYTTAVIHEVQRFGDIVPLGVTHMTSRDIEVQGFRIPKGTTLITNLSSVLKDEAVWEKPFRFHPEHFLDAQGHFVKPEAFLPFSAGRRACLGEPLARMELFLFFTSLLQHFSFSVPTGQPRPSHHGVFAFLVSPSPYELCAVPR
Sequence of CYP3A4 (P08684 whole entry): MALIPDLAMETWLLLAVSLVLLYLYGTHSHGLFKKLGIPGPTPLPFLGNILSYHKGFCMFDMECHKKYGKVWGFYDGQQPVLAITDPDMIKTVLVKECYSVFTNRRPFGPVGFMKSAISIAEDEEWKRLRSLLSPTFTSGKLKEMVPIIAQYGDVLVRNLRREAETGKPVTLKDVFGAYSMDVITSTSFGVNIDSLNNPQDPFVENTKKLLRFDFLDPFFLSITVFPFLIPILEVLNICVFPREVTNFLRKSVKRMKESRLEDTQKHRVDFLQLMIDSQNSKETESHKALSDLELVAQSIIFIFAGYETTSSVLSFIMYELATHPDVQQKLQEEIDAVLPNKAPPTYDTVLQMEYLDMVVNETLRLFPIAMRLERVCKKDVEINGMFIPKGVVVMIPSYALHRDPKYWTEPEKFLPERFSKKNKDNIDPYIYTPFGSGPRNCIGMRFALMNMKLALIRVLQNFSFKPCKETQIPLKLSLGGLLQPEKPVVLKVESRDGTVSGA

Compound | IC50 (adenosine A2A receptor) | Ratio (adenosine A2B receptor; [17]) | IC50 (adenosine A2B receptor) | hepatocyte CLint [8] | IC50 (adenosine A3 receptor [9]) | hepatocyte CLint [10] | IC50 (adenosine A1 receptor [11]) | inhibition at 10 µM [12] | LM CLint [13] | LM CLint [14] | IC50 (adenosine A3 receptor [15]) | IC50 (adenosine A1 receptor [16]) | Ratio (adenosine A2B receptor; [18]) | also measured
Cc1cc2nc(N[C@@H](C)c3ccccn3)nc(C(=O)N3CC[C@H](O)C3)c2s1 [Example Z282, ((S)-3-Hydroxypyrrolidin-1-yl)(6-methyl-2-(((S)-1-(pyridin-2-yl)ethyl)amino)thieno[3,2-d]pyrimidin-4-yl)methanone] | > 500 nM | 77.76 | 10 to 50 nM | 4.11 µL/min/1e6 cells | > 500 nM | 17.2 µL/min/1e6 cells | > 500 nM | -18.8% |  |  |  |  |  | 
Cc1cc2nc(N[C@@H](C)c3cccnc3)nc(C(=O)N3CCC3)c2s1 [Example Z283, (S)-Azetidin-1-yl(6-methyl-2-((1-(pyridin-3-yl)ethyl)amino)thieno[3,2-d]pyrimidin-4-yl)methanone] | 100 to 500 nM | 54.37 | < 10 nM | 26.5 µL/min/1e6 cells | > 500 nM | 42.7 µL/min/1e6 cells | > 500 nM | 80.5% |  |  |  |  |  | 
Cc1cc2nc(N[C@@H](C)c3ccccn3)nc(C(=O)N3CC[C@@H](O)C3)c2s1 [Example Z298, ((R)-3-Hydroxypyrrolidin-1-yl)(6-methyl-2-(((S)-1-(pyridin-2-yl)ethyl)amino)thieno[3,2-d]pyrimidin-4-yl)methanone] | 100 to 500 nM | 64.00 | < 10 nM | 5.35 µL/min/1e6 cells | > 500 nM | 18.8 µL/min/1e6 cells | > 500 nM | -13.9% |  |  |  |  |  | 
CO[C@H]1CCN(C(=O)c2nc(N[C@@H](C)c3cncc(F)c3)nc3cc(C)sc23)C1 [Example Z301, (2-(((S)-1-(5-Fluoropyridin-3-yl)ethyl)amino)-6-methylthieno[3,2-d]pyrimidin-4-yl)((S)-3-methoxypyrrolidin-1-yl)methanone] | 100 to 500 nM | 83.47 | < 10 nM | 23.8 µL/min/1e6 cells | 50 to 100 nM | 51.7 µL/min/1e6 cells | > 500 nM | 52% |  |  |  |  |  | 
Cc1cc2nc(N[C@@H](C)c3cncc(F)c3)nc(C(=O)N3CC[C@H](N)C3)c2s1 [Example Z412, ((S)-3-Aminopyrrolidin-1-yl)(2-(((S)-1-(5-fluoropyridin-3-yl)ethyl)amino)-6-methylthieno[3,2-d]pyrimidin-4-yl)methanone] | > 500 nM |  | 10 to 50 nM |  |  |  |  |  | 26.34 μL/min/mg/protein | 0.15 μL/min/mg/protein | > 500 nM | > 500 nM | 166.77 | 
Cc1csc2c(C(=O)N3CCC3)nc(N[C@@H](C)c3cncc(F)c3)nc12 [Example Z415, (S)-Azetidin-1-yl(2-((1-(5-fluoropyridin-3-yl)ethyl)amino)-7-methylthieno[3,2-d]pyrimidin-4-yl)methanone] | 10 to 50 nM |  | < 10 nM |  |  |  |  |  | 56.26 μL/min/mg/protein | 82.97 μL/min/mg/protein | > 500 nM | 50 to 100 nM | 21.01 | 
Cc1cc2nc(N[C@@H](C)c3cncc(F)c3)nc(C(=O)N3CC(N)C3)c2s1 [Example Z430, (S)-(3-Aminoazetidin-1-yl)(2-((1-(5-fluoropyridin-3-yl)ethyl)amino)-6-methylthieno[3,2-d]pyrimidin-4-yl)methanone] | > 500 nM |  | < 10 nM |  |  |  |  |  | 4.83 μL/min/mg/protein | 5.77 μL/min/mg/protein | > 500 nM | > 500 nM | 177.08 | 
Cc1cc2nc(N[C@@H](C)c3cncc(F)c3)nc(C(=O)NCC[C@H]3CCNC3)c2s1 [Example Z463, 2-(((S)-1-(5-Fluoropyridin-3-yl)ethyl)amino)-6-methyl-N-(2-((R)-pyrrolidin-3-yl)ethyl)thieno[3,2-d]pyrimidine-4-carboxamide] | > 500 nM |  | 10 to 50 nM |  |  |  |  |  | 48.47 μL/min/mg/protein | 4.85 μL/min/mg/protein | > 500 nM | > 500 nM | 159.87 | 

Further lines, with some results ahead:

IC50 (adenosine A2A receptor) | Ratio (adenosine A2B receptor; [17]) | IC50 (adenosine A2B receptor) | hepatocyte CLint [8] | IC50 (adenosine A3 receptor [9]) | hepatocyte CLint [10] | IC50 (adenosine A1 receptor [11]) | inhibition at 10 µM [12] | LM CLint [13] | LM CLint [14] | IC50 (adenosine A3 receptor [15]) | IC50 (adenosine A1 receptor [16]) | Ratio (adenosine A2B receptor; [18]) | Compound | also measured
100 to 500 nM | 12.76 | 10 to 50 nM |  |  |  |  |  |  |  |  |  |  | C[C@H](Nc1nc(C(=O)N2CC[C@@H](O)C2)c2sccc2n1)c1ccccn1 [Example Z59, ((R)-3-Hydroxypyrrolidin-1-yl)(2-(((S)-1-(pyridin-2-yl)ethyl)amino)thieno[3,2-d]pyrimidin-4-yl)methanone] | LM CLint [1]: 4.87 μL/min/mg/protein; inhibition at 10 µM (CYP3A4): 0%; IC50 (adenosine A1 receptor [2]): > 500 nM; LM CLint [3]: 4.86 μL/min/mg/protein; hepatocyte CLint [4]: 4.19 µL/min/1e6 cells; inhibition at 10 µM (CYP2D6): 15%; IC50 (adenosine A3 receptor [5]): > 500 nM; hepatocyte CLint [6]: 8.7 µL/min/1e6 cells; hepatocyte CLint [7]: 1.5 µL/min/1e6 cells
100 to 500 nM | 88.17 | < 10 nM | 72.7 µL/min/1e6 cells | > 500 nM | 41.1 µL/min/1e6 cells | > 500 nM | 75% |  |  |  |  |  | C[C@H](Nc1nc(C(=O)N2CCCC2)c2sccc2n1)c1cncc(Cl)c1 [Example Z231, (S)-(2-((1-(5-Chloropyridin-3-yl)ethyl)amino)thieno[3,2-d]pyrimidin-4-yl)(pyrrolidin-1-yl)methanone] | 
100 to 500 nM | 84.08 | < 10 nM | 15.6 µL/min/1e6 cells | > 500 nM | 17.2 µL/min/1e6 cells | > 500 nM | 37.6% |  |  |  |  |  | C[C@H](Nc1nc(C(=O)N2CC[C@H](CO)C2)c2sccc2n1)c1cncc(F)c1 [Example Z294, (2-(((S)-1-(5-Fluoropyridin-3-yl)ethyl)amino)thieno[3,2-d]pyrimidin-4-yl)((S)-3-(hydroxymethyl)pyrrolidin-1-yl)methanone] | 
 |  | 10 to 50 nM |  |  |  |  |  | 5.32 μL/min/mg/protein | 2.64 μL/min/mg/protein |  |  |  | C[C@H](Nc1nc(C(=O)N2CC(N)C2)c2sccc2n1)c1cncc(F)c1 [Example Z401, (S)-(3-Aminoazetidin-1-yl)(2-((1-(5-fluoropyridin-3-yl)ethyl)amino)thieno[3,2-d]pyrimidin-4-yl)methanone] | 
 |  | 10 to 50 nM |  |  |  |  |  | 9.09 μL/min/mg/protein | 0.69 μL/min/mg/protein |  |  |  | C[C@H](Nc1nc(C(=O)N2CC(CN)C2)c2sccc2n1)c1cncc(F)c1 [Example Z419, (S)-(3-(Aminomethyl)azetidin-1-yl)(2-((1-(5-fluoropyridin-3-yl)ethyl)amino)thieno[3,2-d]pyrimidin-4-yl)methanone] | 
 |  | 10 to 50 nM |  |  |  |  |  | 85.16 μL/min/mg/protein | 228.45 μL/min/mg/protein |  |  |  | CC(=O)Nc1ccc(CCNC(=O)c2nc(N[C@@H](C)c3cncc(F)c3)nc3ccsc23)cc1 [Example Z421, (S)—N-(4-Acetamidophenethyl)-2-((1-(5-fluoropyridin-3-yl)ethyl)amino)thieno[3,2-d]pyrimidine-4-carboxamide] | 
10 to 50 nM |  | 10 to 50 nM |  |  |  |  |  | 314.14 μL/min/mg/protein | 82.93 μL/min/mg/protein | 50 to 100 nM | > 500 nM | 0.64 | COc1cccc(CNC(=O)c2nc(N[C@@H](C)c3ccccn3)nc3c(C)csc23)n1 [Example Z450, (S)—N-((6-Methoxypyridin-2-yl)methyl)-7-methyl-2-((1-(pyridin-2-yl)ethyl)amino)thieno[3,2-d]pyrimidine-4-carboxamide] | 
10 to 50 nM |  | > 500 nM |  |  |  |  |  | 75.91 μL/min/mg/protein | 35.20 μL/min/mg/protein | > 500 nM | > 500 nM | 0.22 | COc1ccc([C@@H](C)Nc2nc(C(=O)NCc3ccc(OC)nc3)c3sccc3n2)cc1 [Example Z465, (R)-2-((1-(4-Methoxyphenyl)ethyl)amino)-N-((6-methoxypyridin-3-yl)methyl)thieno[3,2-d]pyrimidine-4-carboxamide] | 
10 to 50 nM |  | < 10 nM |  |  |  |  |  | 16.99 μL/min/mg/protein | 6.17 μL/min/mg/protein | > 500 nM | > 500 nM | 4.68 | C[C@H](Nc1nc(C(=O)N2CC(NC(=O)C3CC3)C2)c2sccc2n1)c1cncc(F)c1 [Example Z517, (S)—N-(1-(2-((1-(5-Fluoropyridin-3-yl)ethyl)amino)thieno[3,2-d]pyrimidine-4-carbonyl)azetidin-3-yl)cyclopropanecarboxamide] | 
